{"source": "patent US20080249140A1", "about": "“Quaternary 3 -Amido, N-Methylpyridinium Salts as Anti-Inflammatory Agents” (priority 2005, published 2008)", "key": {"[1]": {"test_system": "reddening of the skin upon UV-irradiation", "experiment": "UV-erythema test (anti-inflammation) with a trial person", "type": "in vivo", "conditions": "for Readings of reddening intensities: 15±1 mg gel applied to irradiated skin, lower arm, UV C 150 seconds", "description": "The NMN diclofenac salt prepared according to Example 1 was tested in experiments with a trial person in an […] according to Hiramatsu Y et al., Arzneimittel-forschung 1990, vol. 40 (11), 1117, and Wilhelm G, Schweiz. Med. Wochenschrift 1949, vol. 79, 577. The criterion of efficacy was the inhibition of the reddening of the skin upon UV-irradiation during the time of observation.\nUV-Erythema Test (Anti-Inflammation):\n• Lamp used: UV C lamp (Sylvania, Hg low pressure), 9 W • Irradiated area: circular, […] • Distance from lamp: 10 cm • Time of irradiation: 150 seconds • Site: lower arm, shaven, proximal side • Amount of gel applied to irradiated surface: 15±1 mg 3.5 to 5 minutes after end of irradiation\nReadings of reddening intensities at given time intervals (arbitrary units): […]"}, "[2]": {"test_system": "rats", "conditions": "comparable to nicotinamide, lower than diethylamine; cited from earlier work"}}, "data": [{"smiles": "C[n+]1cccc(C(N)=O)c1.O=C([O-])Cc1ccccc1Nc1c(Cl)cccc1Cl", "note": "[NMN-Diclofenac, NMN-Salt of Diclofenac]", "values": [{"measurement": "Readings of reddening intensities", "setting": "[1]; 40 minutes after start of irradiation", "value": 1, "unit": "arbitrary units"}, {"measurement": "Readings of reddening intensities", "setting": "[1]; 60 minutes after start of irradiation", "value": 0.5, "unit": "arbitrary units"}, {"measurement": "Readings of reddening intensities", "setting": "[1]; 90 minutes after start of irradiation", "value": 0, "unit": "arbitrary units"}, {"measurement": "Readings of reddening intensities", "setting": "[1]; 120 minutes after start of irradiation", "value": 0.5, "unit": "arbitrary units"}, {"measurement": "Readings of reddening intensities", "setting": "[1]; 180 minutes after start of irradiation", "value": 0.5, "unit": "arbitrary units"}, {"measurement": "Activity in UV-erythema test compared with Voltaren-Emulgel", "setting": "[1]; comparison with Voltaren-Emulgel (diethylammonium salt of diclofenac)", "value": "superior activity"}]}, {"smiles": "C[n+]1cccc(C(N)=O)c1", "note": "[NMN, N(1)-methylnicotinamide]", "values": [{"measurement": "Toxicity", "setting": "[2]", "value": "low toxicity"}]}]}
